Measured values from patent US20190374647A1, “STABLE LIPOSOMES FOR DRUG DELIVERY” (YISSUM RESEARCH DEVELOPMENT COMPANY OF THE HEBREW …, priority 2012, published 2019).
Counter-ions that a name gives are not always drawn. Marks after values point to notes of the source that are not given here.

Assays:
[1] = cited from earlier work
[2] = Doxorubicin solubility in ammonium salt solutions; type: physicochemical
[3] = Blood levels of doxorubicin in mice after single I.V. dose; type: in vivo, Balb/c mice; conditions: after 48 hours, FIG. 3
Method: At defined time-points (see Table 8 below, for composition of each formulation see Tables 5 and 6), mice of each group were euthanized with CO2 and terminal blood was withdrawn from the retro-orbital sinus and collected in labeled K3EDTA tubes. The blood samples were then immediately subjected to plasma separation procedure (4000 rpm for 10 minutes at 4° C.). The plasma, red blood cells fraction and whole blood of each mouse has been collected in labeled CryoTubes and stored at −80° C. pending analysis. Doxorubicin was extracted from the samples as follows. […] From the upper phase, 100 μl of the plasma diluted in A-IPA were diluted in 900 μl mobile phase for analysis and the contents of extracted doxorubicin was determined using fluorescence HPLC (as described in Gabizon et al. (1993) Pharm. Research 10(5):703-708).

[4] = system: human OVCAR-3 ovarian adenocarcinoma cells; experiment: OVCAR-3 ovarian adenocarcinoma xenograft, anti-tumor efficacy; type: in vivo, athymic nude mice
Method: Female athymic nude mice were inoculated subcutaneously in the left flank with a suspension of 5×10^6 human OVCAR-3 ovarian adenocarcinoma cells (200 µL injection volume) and monitored for tumor growth. Animals were selected, randomized into four treatment groups (n=8 per group) with a balanced tumor size of ˜100 mm^3 according to the study design (Table 9) below.
(§1) G1 animals served as vehicle control and received 5 ml/kg saline. 2, G5 and G6 animals were treated with 8 mg/kg doxorubicin HCl, LC3-PLDMS-2 (PLMDS-2 are liposomes containing 250 mM ammonium methanesulfonate (MS) and remote loaded with doxorubicin (group 5 in the experiment), LC4_PLDMS-5 are liposomes containing 500 mM ammonium methanesulfonate (MS) and remote loaded with doxorubicin (group 6 in the experiment) (respectively, given intravenously (5 mL/kg dose volume) once weekly for 2 consecutive weeks. Body weight, general clinical observations and tumor size were monitored throughout the experimental period. Experimental groups were terminated when median tumor volume reached 2500 mm^3. Endpoint parameters such as body weight change, % ILS, Median tumor volume, TGI, % T/C, RTV, LCK, Tumor growth delay, TVDT and TVDTD were calculated. Tumor volumes were measured twice weekly using a digital vernier caliper recording length (L=longest axis) and width (W=shortest axis), and volume was calculated in mm^3 as L×W^2/2. Groups reaching a median tumor volume of 2500 mm^3 were terminated and the date of termination was used as the date of death for the purpose of survival calculations. The following parameters were calculated: median survival time (MST), percentage increased life span (% ILS) and median tumor volume (TV). Other measured, including median TV change; median tumor growth inhibition (TGI); % T/C; relative tumor volume (RTV); log cell kill (LCK); tumor growth delay; tumor volume doubling time (TVDT); and tumor volume doubling time delay (TVDTC), were derived from the median tumor volume measurements. Tumor growth regression was also plotted.
(§2) Mice bearing growing tumor were selected and randomized into 4 groups containing 8 animals in each based on a mean tumor size of ˜100 mm3. G1 animals served as vehicle control and received 5 ml/kg saline whereas G2, G5 and G6 animals received Doxorubicin HCl, LC3-PLDMS-2 or LC4-PLDMS-5, respectively, at a dose of 8 mg/kg. All the animals were dosed intravenously at the dose volume of 5 ml/kg weekly once for two weeks. Body weight, general clinical observations and tumor volume parameters were recorded during the experimental period. Groups reaching median tumor volume of 2500 mm^3 were terminated.
For preparation and administration of reference and test item, all the test items are ready to use formulations. The strength of test formulation is 2 mg/ml of doxorubicin HCl in sterile 5 ml vial. 2 ml of reference or test item formulation (i.e. Doxorubicin HCl, LC3-PLDMS-2 and LC4-PLDMS-5) was diluted to 0.5 ml normal saline to achieve 1.6 mg/ml. 100 μL of final test formulation was injected intravenously to 20 g of mouse to achieve the 8 mg/kg dose. Group G1 animals received normal saline at the dose volume of 5 ml/kg.

[5] = OVCAR-3 xenograft study, tolerability (body weight, clinical signs); type: in vivo
Method: as §1, §2
The body weight of each mouse was recorded at the time of randomization, on alternate days during dosing period and post-dosing period until the end of the study.

[6] = Doxorubicin remote loading encapsulation efficiency and short stability; type: physicochemical; conditions: for Encapsulation % (T0): doxorubicin
Method: In this stage the efficiency of remote loading encapsulation and encapsulation stability were studied. Liposomes were prepared as described above. […] All formulations were made from HSPC:Cholesterol:PEG-DSPE mole ratio of 54.5:41:4.5, briefly the lipids were hydrated and suspended in the various ammonium ions to form MLV. The MLV were downsized by extrusion followed by dialysis to remove external ammonium salt and form the gradient, finally drug was remote loaded into the gradient liposomes.

[7] = Doxorubicin accelerated chemical stability in ammonium-anion salt solutions; type: physicochemical; conditions: 4 hours at 70° C.; for Additional peaks: HPLC
Method: For accelerated stability the, chemical stability of doxorubicin in various ammonium-anions salts solutions was tested. Briefly, doxorubicin (2 mg/ml) was dissolved in various ammonium-anions salt solutions and incubated for 4 hours at the temperature of 70° C. At the end of 4 hours incubation doxorubicin concentration and the presence of doxorubicin degradation products were analyzed by HPLC using Agilent 1100 according to following protocol: Mobile phase: 50% MeOH, 40% phosphate buffer, pH=4, 10% Acetonitrile and 2% TEA Column: Phenomenex, Luna, C-18, Flow: 1 ml/min, detection wavelength 254 and 480 nm.

[8] = Topotecan remote loading encapsulation efficiency; type: physicochemical; conditions: 4 days storage at 5° C.
Method: Remote loading of topotecan were performed in the same way as the experiments described in Table 4 and Table 5 below for doxorubicin remote loading except that the drug concentration was determined from its absorbance at a wave length of 370 nm (which is the wavelength of maximum absorbance of topotecan).

[9] = 8 mg/kg i.v. once weekly for 2 weeks
[10] = counter anion 500 mM, salt pH 5.5
[11] = counter anion 500 mM, salt pH 6.2
[12] = counter anion 250 mM, salt pH 5.5
[13] = counter anion 500 mM, salt pH 5.53

O=C(O)[C@H]1OC(O)[C@H](O)[C@@H](O)[C@@H]1O (mixture of isomers) [Glucuronate]
Log P (log D at pH=5.5) value quoted in text [1]: < −2.3
LogD (acid)- at pH = 5.5 [1]: −5.38

O=S(=O)(O)CCCO [3-HydroxyPropane-1-Sulfonate]
LogP (acid) [1]: −2.59
LogD (acid)- at pH = 5.5 [1]: −5.39

COc1cccc2c1C(=O)c1c(O)c3c(c(O)c1C2=O)C[C@@](O)(C(=O)CO)C[C@@H]3O[C@H]1C[C@H](N)[C@H](O)[C@H](C)O1 [Doxorubicin HCl]
higher solubility of the methanesulfonate form versus ammonium sulfate [2]: at least 35 fold
solubility of doxorubicin in 250 mM ammonium alkyl or aryl sulfonate relative to 250 mM ammonium sulfate [2]: approximately 30 fold
precipitation in the presence of alkyl or aryl sulfonate ions ([2]; 70 mM): did not precipitate
concentration at which doxorubicin precipitates ([2]; in the presence of sulfate ions (ammonium sulfate)): less than 2 mM
drug levels in blood in comparison to Doxil® [3]: below limit of detection
% Increased Life Span (% ILS) [4, 9]: 21.2%
Mean TVDT [4, 9]: 7 days
Median Survival Time (MST) [4, 9]: 63
median life span [4, 9]: 63 days
Log Cell Kill Value ([4]; 8 mg/kg i.v. once weekly for 2 weeks, derived from median tumor volume): 0.40
Median Tumor Volume ([4]; Day 22): 110.9 mm^3
Median Tumor Volume ([4]; Day 24): 128.6 mm^3
Median Tumor Volume ([4]; Day 26): 145.8 mm^3
Median Tumor Volume ([4]; Day 28): 173.8 mm^3
Median Tumor Volume ([4]; Day 30): 194.7 mm^3
Median Tumor Volume ([4]; Day 32): 215.5 mm^3
Median Tumor Volume ([4]; Day 34): 252.9 mm^3
Median Tumor Volume ([4]; Day 36): 311.1 mm^3
Median Tumor Volume ([4]; Day 38): 379.4 mm^3
Median Tumor Volume ([4]; Day 40): 453.8 mm^3
Median Tumor Volume ([4]; Day 42): 550.9 mm^3
Median Tumor Volume ([4]; Day 44): 673.4 mm^3
Median Tumor Volume ([4]; Day 46): 802.4 mm^3
Median Tumor Volume ([4]; Day 48): 1006.1 mm^3
Median Tumor Volume ([4]; Day 50): 1218.8 mm^3
Median Tumor Volume ([4]; Day 52): 1430.3 mm^3
Median Tumor Volume ([4]; Day 56): 1799.5 mm^3
Median Tumor Volume ([4]; Day 59): 2192.6 mm^3
Median Tumor Volume ([4]; Day 63): 2699.3 mm^3
Mean Body Weight ([5]; Day 22): 22.4 g
Mean Percentage Change in Body Weight ([5]; Day 22): 0.0%
Mean Body Weight ([5]; Day 24): 22.1 g
Mean Percentage Change in Body Weight ([5]; Day 24): −1.6%
Mean Body Weight ([5]; Day 26): 21.6 g
Mean Percentage Change in Body Weight ([5]; Day 26): −3.7%
Mean Body Weight ([5]; Day 28): 21.8 g
Mean Percentage Change in Body Weight ([5]; Day 28): −2.9%
Mean Body Weight ([5]; Day 30): 21.5 g
Mean Percentage Change in Body Weight ([5]; Day 30): −4.1%
Mean Body Weight ([5]; Day 32): 21.4 g
Mean Percentage Change in Body Weight ([5]; Day 32): −4.7%
Mean Body Weight ([5]; Day 34): 21.1 g
Mean Percentage Change in Body Weight ([5]; Day 34): −6.1%
Mean Body Weight ([5]; Day 36): 20.9 g
Mean Percentage Change in Body Weight ([5]; Day 36): −6.6%
Mean Body Weight ([5]; Day 38): 20.8 g
Mean Percentage Change in Body Weight ([5]; Day 38): −7.4%
Mean Body Weight ([5]; Day 40): 20.6 g
Mean Percentage Change in Body Weight ([5]; Day 40): −8.0%
Mean Body Weight ([5]; Day 42): 20.6 g
Mean Percentage Change in Body Weight ([5]; Day 42): −8.1%
Mean Body Weight ([5]; Day 44): 20.5 g
Mean Percentage Change in Body Weight ([5]; Day 44): −8.5%
Mean Body Weight ([5]; Day 46): 20.5* g
Mean Percentage Change in Body Weight ([5]; Day 46): −8.6%
Mean Body Weight ([5]; Day 48): 20.8* g
Mean Percentage Change in Body Weight ([5]; Day 48): −7.3%
Mean Body Weight ([5]; Day 50): 20.9* g
Mean Percentage Change in Body Weight ([5]; Day 50): −6.9%
Mean Body Weight ([5]; Day 52): 21.1* g
Mean Percentage Change in Body Weight ([5]; Day 52): −6.0%
Mean Body Weight ([5]; Day 56): 21.4 g
Mean Percentage Change in Body Weight ([5]; Day 56): −4.7%
Mean Body Weight ([5]; Day 59): 21.8 g
Mean Percentage Change in Body Weight ([5]; Day 59): −2.9%
Mean Body Weight ([5]; Day 63): 22.1 g
Mean Percentage Change in Body Weight ([5]; Day 63): −1.3%
maximum body weight loss ([5]; G2 on day 46, other groups on day 32 / 34 as printed): −8.6%
body weight gain by the end of experiment ([5]; mouse, in vivo): no body weight gain was observed

O=C(O)[C@H](O)[C@@H](O)[C@H](O)[C@H](O)CO [Gluconate]
LogP (acid) [1]: −2.116
LogD (acid)- at pH = 5.5 [1]: −4.83

O=C(O)CO [Glycolate]
Encapsulation % (T0) [6, 10]: 41.19%
LogP (acid) [1]: −1.204

CC(=O)C(=O)O [Pyruvate]
Encapsulation % Short stability 5° C. After one week ([6]; counter anion 500 mM, salt pH 6): 15.38%
LogP (acid) [1]: −1.24
LogD (acid)- at pH = 5.5 [1]: −4.04

O=S(=O)(O)O [Sulfate]
Assay loss (%) at 254 nm [7]: <15%
Additional peaks [7]: no

CC[C@@]1(O)C(=O)OCc2c1cc1n(c2=O)Cc2cc3c(CN(C)C)c(O)ccc3nc2-1 [topotecan]
encapsulation efficiency (loading) ([8]; topotecan HCl 1.3 mg/ml, ammonium 350 mM, methanesulfonate 350 mM counter anion): 94%
encapsulation efficiency (loading) ([8]; topotecan HCl, 500 mM ammonium, 250 mM sulfate counter anion): 93%

Ethanesulfonate
LogP (acid) [1]: −1.577
LogD (acid)- at pH = 5.5 [1]: −4.85

Lactate
Encapsulation % Short stability 5° C. After one week [6, 11]: 48.68%
Encapsulation % (T0) ([6]; counter anion 250 mM, salt pH 4.5): 18.37%
Encapsulation % (T0) [6, 12]: 23.42%
Encapsulation % (T0) [6, 11]: 101.95%

Maleate
Encapsulation % (T0) [6, 12]: 36.23%
Encapsulation % (T0) [6, 10]: 22.55%

Methanesulfonate
Assay loss (%) at 254 nm [7]: <15%
Additional peaks [7]: no
Encapsulation % Short stability 5° C. After one week [6, 13]: 110.66%
Encapsulation % (T0) [6, 13]: 106.32%
LogP (acid) [1]: −2.087
LogD (acid)- at pH = 5.5 [1]: −5.39

Tartarate
LogP (acid) [1]: −1.081
